# Test results taken from US20130156795A1, “METHODS FOR INHIBITION OF CELL PROLIFERATION, SYNERGISTIC TRANSCRIPTION MODULES AND USES THEREOF” (priority 2009, published 2013).
# Entries after “also recorded” stand apart in the source; their conditions may differ. Where two headings read alike, the source gives them in different places.
# Legend:
# GBM-BTICs and SNB19 = experiment: qRT-PCR of C/EBPβ and Stat3 mRNA after lentivirus-mediated shRNA silencing; format: cell-based, human
# Description: For loss-of-function experiments, lentivirus-mediated shRNA silencing of C/EBPβ and Stat3 in the human glioma cell line SNB19 and in early-passage cultures of tumor cells derived from primary GBM was performed. The latter were grown in serum-free conditions, in the presence of the growth factors bFGF and EGF. These culture conditions preserve the tumor stem cell-like features of GBM-derived cells and propel the formation of GBM-like tumors after intracranial transplantation in immunodeficient mice {Lee, 2006; herein incorporated by reference in its entirety} (GBM-derived brain tumor initiating cells, GBM-BTICs, see FIG. 22 for the analysis of their tumor-initiating capacity). At least three replicates for each condition were produced and a global dataset of 89 individual samples was generated, including 55 knockdown experiments in human glioma cells and 34 ectopic expression experiments in mouse NSCs. Gene expression profiles of human samples were produced with the HT-12v3 Illumina BeadArrays (including 24,385 human genes), while murine samples were profiled on mouse-6V2 Illumina BeadArrays (including 20,311 mouse genes). 14,857 murine genes were mapped to human orthologs, using the homologene database (http://www.ncbi.nlm.nih.gov/homologene; herein incorporated by reference in its entirety). Of the 149 genes in the MGES, 118 could be mapped to murine genes represented on the mouse-6V2 array.
# Reciprocal changes followed ectopic expression of the two TFs in C17.2 and NSC cells (Table 10) qRT-PCR values and microarray-based measurements were highly correlated for Stat3 but not for C/EBPβ mRNA (FIG. 24). Moreover, the Stat3C and C/EBPβ constructs used in the ectopic expression experiments in mouse NSCs lack the 3′ UTR sequence targeted by the Illumina probes. Thus, the qRT-PCR values for C/EBPβ and Stat3 were used, rather than the microarray measurements, as more accurate read-outs for their mRNA expression across the 89 samples.
# RNA was prepared with RiboPure kit (Ambion), and used for first strand cDNA synthesis using random primers and SuperScriptll Reverse Transcriptase (Invitrogen). QRT-PCR was performed using Power SYBR Green PCR Master Mix (Applied Biosystems). QRT-PCR results were analyzed by the ΔΔCT method (Livak & Schmittgen, Methods 25:402, 2001; herein incorporated by reference in its entirety) using GAPDH or 18S as housekeeping genes.
# Lentiviral expression vectors carrying shRNAs were purchased from Sigma. To generate lentiviral particles, each shRNA expression plasmid was co-transfected with pCMV-dR8.91 and pCMV-MD2.G vectors into human embryonic kidney 293T cells using Fugene 6 (Roche). Lentiviral infections were performed as described {Zhao, 2008; herein incorporated by reference in its entirety}.
# [1] = system: SNB19 human glioma cell line; experiment: Gene expression profiling and GSEA after shRNA silencing of MR-TFs in SNB19; format: cell-based; settings: shRNA knock-down in human glioma cells; for Enrichment of ATF2 regulon on TF-knock-down gene expression profile by GSEA, nES: Control TF regulon ATF2 (negative control), size 386; for Enrichment of SOX15 regulon on TF-knock-down gene expression profile by GSEA, nES: Control TF regulon SOX15 (negative control), size 213; for Enrichment of ZNF277 regulon on TF-knock-down gene expression profile by GSEA, nES: Control TF regulon ZNF277 (negative control), size 238; for Enrichment of ZNF500 regulon on TF-knock-down gene expression profile by GSEA, nES: Control TF regulon ZNF500 (negative control), size 469; for Enrichment of the MGES on genes downregulated after MR-TF knock-down, nES: MGES Enrich.; for Enrichment of C/EBPβ regulon on TF-knock-down gene expression profile by GSEA, nES: Module TF regulon C/EBPβ, size 209; for Enrichment of FosL2 regulon on TF-knock-down gene expression profile by GSEA, nES: Module TF regulon FosL2, size 403; for Enrichment of Runx1 regulon on TF-knock-down gene expression profile by GSEA, nES: Module TF regulon Runx1, size 490; for Enrichment of Stat3 regulon on TF-knock-down gene expression profile by GSEA, nES: Module TF regulon Stat3, size 366; for Enrichment of bHLH-B2 regulon on TF-knock-down gene expression profile by GSEA, nES: Module TF regulon bHLH-B2, size 226
# From the text: To test whether specific gene signatures were globally differentially regulated, we used the Gene Set Enrichment analysis method (A31; herein incorporated by reference in its entirety). In this method, the Kolmogorov-Smirnoff test is used to determine whether two gene lists are statistically correlated. In this case, one list includes genes on the microarray expression profile dataset, ranked by their differential expression statistics across two conditions (e.g. ectopically expressed Stat3C/C/EBPβ vs. control), from most over- to most underexpressed. The other list contains non-ranked genes in a specific signature (e.g. mesenchymal). This is very useful to detect, for instance, situations where signature genes can be differentially expressed as a whole, even though the fold-change can be small for each gene in isolation. In this case, a gene-by-gene test, such as a T-test, cannot reveal statistical significance. The algorithm was set to implement weighted scoring scheme and the enrichment score significance was assessed by 1000 permutation tests.
# Next, lentivirus-mediated shRNA silencing of the five TFs (C/EBPβ, Stat3, bHLH-B2, FosL2, and Runx1) was performed in the SNB19 human glioma cell line, followed by gene expression profiling using HT-12v3 Illumina BeadArrays in triplicate.
# RNA amplification for Array analysis was performed with Illumina TotalPrep RNA Amplification Kit (Ambion). 1.5 μg of amplified RNA was hybridized on Illumina HumanHT-12v3 or MouseWG-6 expression BeadChip according to the manufacturer's instructions. Hybridization data was obtained with an iScan BeadArray scanner (Illumina) and pre-processed by variance stabilization and robust spline normalization implemented in the lumi package under the R-system (Du, P., Kibbe, W. A. and Lin, S. M., (2008) ‘lumi: a pipeline for processing Illumina microarray’, Bioinformatics 24(13):1547-1548; herein incorporated by reference in its entirety).
# SNB19 glioma cells = experiment: Intracranial xenograft of shRNA-transduced SNB19 glioma cells in immunocompromised mice; format: in vivo, mouse; settings: SNB19 xenografted into striatum, 120 days from injection
# Description: Next, it was considred whether loss of C/EBPβ and Stat3 in glioma cells reduced tumor aggressiveness in vitro and in vivo. […] Then, the impact of C/EBPβ and Stat3 knockdown for brain tumorigenesis in vivo was determined. SNB19 cells transduced with non-targeting control shRNA lentivirus or shRNA targeting C/EBPβ and/or Stat3 were xenografted into the striatum of immunocompromised mice. […] However, only one of four mice from the shC/EBPβ and one of five mice from the shC/EBPβ+shStat3 groups developed tumors after 120 days from the injection (FIG. 22B). […] Conversely, the single tumor in the shC/EBPβ+shStat3 group grew well circumscribed and was less angiogenic.
# Intracranial injection of SNB19 glioma cell line and GBM-derived BTICs was performed in 6-8 weeks NOD/SCID mice (Charles River laboratories) in accordance with guidelines of the International Agency for Reserch on Cancer's Animal Care and Use Committee. Briefly, 48 h after lentiviral infection, 2×10^5 SNB19 or 3×10^5 BTICs were injected 2 mm lateral and 0.5 mm anterior to the bregma, 3 mm below the skull. Mice were monitored daily and sacrificed when neurological symptoms appeared. Kaplan-Meier survival curve of the mice injected with SNB19 glioma cells was generated using the DNA Statview software package (AbacusConcepts, Berkeley Calif.).
# [2] = system: C/EBPbeta-luciferase reporter; experiment: C/EBPbeta-luciferase reporter screen in SNB19 glioma cells; format: cell-based, human
# Description: SNB19 human glioma cells were stably transfected with the C/EBPbeta-driven luciferase plasmid (FIG. 36). Several clones were isolated and propagated. […] Cells were transfected with control siRNAs or siRNA oligonucleotides targeting C/EBPbeta (for example, SEQ ID NO: 228 or SEQ ID NO: 229). The control siRNA sequence is the Dharmacon ON-TARGETpIus Non-targeting Pool (Cat#: D-001810-10-20). Luciferase activity was measured on a luminometer and the results are shown after normalization with renilla.
# A multimerized C/EBPbeta-luciferase reporter was stably introduced in SNB19 and a screening of ˜9,800 compounds was done to identify positive candidates.
# phospho-STAT3 = experiment: Inhibition of active STAT3 (phospho-STAT3); format: cell-based, human
# T98G glioma cell line = experiment: ZNF238 and ZNF238-target mRNA expression by quantitative PCR in T98G cells; format: cell-based, human
# Description: FIG. 12A, Graphical representation of the promoter of ZNF238. The region between −1800 and −3400 contains stretches of CpG islands. FIG. 12B, 5-Azacytidine induces expression of ZNF238. T98G cells were treated with 5-Azacytidine at the indicated concentrations for 3 days. Expression of ZNF238 was analyzed by quantitative PCR. […] HPRT was used as control for normalization.
# Computational and expression predictions converged towards the identification of a highly vulnerable structure of the regulatory region controlling ZNF238 expression. The ZNF238 promoter/enhancer is unusually rich in evolutionarily conserved CpG islands (FIG. 12A), which are targeted by DNA methyltransferases leading to gene expression silencing. Methylation of regulatory DNA regions is a common mechanism in human cancer and is implicated in the constitutive silencing of tumor suppressor genes in malignant glioma (109; herein incorporated by reference in its entirety). Thus, whether promoter methylation induces silencing of ZNF238 was considered. Pharmacological inhibition of methylation with an inhibitor of DNA methyltransferases (5-Azacytidine) elevated the expression of ZNF238 mRNA in the T98G glioma cell line (FIG. 12B) and repressed the expression of SerpineH1 and CH3IRL1 (FIG. 12C), two mesenchymal genes predicted as ZNF238 targets by ARACNe (FIG. 1).
compound,measurement,setting,value
"shStat3: lentiviral shRNA specific for Stat3 purchased from Sigma (TRCN0000020843, SEQ ID NO: 224) (CCGGGCAAAGAATCACATGCCACTTCTCGAGAAGTGGCATGTGATTCTTTGCTTTTT)","C/EBPβ mRNA level relative to non-target shRNA transduced cells (fold ratio, median ± MAD)",GBM-BTICs and SNB19,0.87 ± 0.111
same,"Stat3 mRNA level relative to non-target shRNA transduced cells (fold ratio, median ± MAD)",GBM-BTICs and SNB19,0.205 ± 0.052
same,"Stat3 mRNA level relative to non-target shRNA transduced cells (fold ratio, median ± MAD)",GBM-BTICs and SNB19; listed as Stat3-shRNA,0.205
same,"Enrichment of ATF2 regulon on TF-knock-down gene expression profile by GSEA, nES",[1],−0.24
same,"Enrichment of SOX15 regulon on TF-knock-down gene expression profile by GSEA, nES",[1],−2.81
same,"Enrichment of ZNF277 regulon on TF-knock-down gene expression profile by GSEA, nES",[1],−0.55
same,"Enrichment of ZNF500 regulon on TF-knock-down gene expression profile by GSEA, nES",[1],0.20
same,"Enrichment of the MGES on genes downregulated after MR-TF knock-down, nES",[1],3.59
same,"Enrichment of C/EBPβ regulon on TF-knock-down gene expression profile by GSEA, nES",[1],2.43
same,"Enrichment of FosL2 regulon on TF-knock-down gene expression profile by GSEA, nES",[1],4.98
same,"Enrichment of Runx1 regulon on TF-knock-down gene expression profile by GSEA, nES",[1],2.41
same,"Enrichment of Stat3 regulon on TF-knock-down gene expression profile by GSEA, nES",[1],1.78
same,"Enrichment of bHLH-B2 regulon on TF-knock-down gene expression profile by GSEA, nES",[1],0.59
same,mice that developed tumors,SNB19 glioma cells,all mice
COc1cc([C@@H]2c3cc4c(cc3[C@@H](O[C@@H]3O[C@@H]5CO[C@@H](C)O[C@H]5[C@H](O)[C@H]3O)[C@H]3COC(=O)[C@H]23)OCO4)cc(OC)c1O [etoposide],inhibition of CCAAT/enhancer-binding protein (CEBP) luciferase reporter,"[2]; pilot screen, microsource library (2000 compounds), SNB19",inhibit
same,inhibition of the active form of STAT3 (phospho-STAT3),phospho-STAT3,inhibit
Nc1ncn([C@@H]2O[C@H](CO)[C@@H](O)[C@H]2O)c(=O)n1 [5-Azacytidine],expression of CH3IRL1,T98G glioma cell line,repressed
same,expression of SerpineH1,T98G glioma cell line,repressed
same,expression of ZNF238 mRNA,"T98G glioma cell line; 3 days, quantitative PCR",induces; also recorded: elevated
same,Expression of selected ZNF238 targets,T98G glioma cell line; HPRT normalization (FIG. 12C),down-regulated
"shC/EBPβ: lentiviral shRNA specific for C/EBPβ purchased from Sigma (TRCN0000007442, SEQ ID NO: 225) (CCGGCGACTTCCTCTCCGACCTCTTCTCGAGAAGAGGTCGGAGAGGAAGTCGTTTTT)","C/EBPβ mRNA level relative to non-target shRNA transduced cells (fold ratio, median ± MAD)",GBM-BTICs and SNB19,0.26 ± 0.119
same,"Stat3 mRNA level relative to non-target shRNA transduced cells (fold ratio, median ± MAD)",GBM-BTICs and SNB19,1.13 ± 0.43
same,"C/EBPβ mRNA level relative to non-target shRNA transduced cells (fold ratio, median ± MAD)",GBM-BTICs and SNB19; listed as C/EBPβ shRNA,0.26
same,"Enrichment of ATF2 regulon on TF-knock-down gene expression profile by GSEA, nES",[1],1.54
same,"Enrichment of SOX15 regulon on TF-knock-down gene expression profile by GSEA, nES",[1],0.28
same,"Enrichment of ZNF277 regulon on TF-knock-down gene expression profile by GSEA, nES",[1],−0.79
same,"Enrichment of ZNF500 regulon on TF-knock-down gene expression profile by GSEA, nES",[1],−0.24
same,"Enrichment of the MGES on genes downregulated after MR-TF knock-down, nES",[1],3.23
same,"Enrichment of C/EBPβ regulon on TF-knock-down gene expression profile by GSEA, nES",[1],1.91
same,"Enrichment of FosL2 regulon on TF-knock-down gene expression profile by GSEA, nES",[1],3.83
same,"Enrichment of Runx1 regulon on TF-knock-down gene expression profile by GSEA, nES",[1],0.55
same,"Enrichment of Stat3 regulon on TF-knock-down gene expression profile by GSEA, nES",[1],2.49
same,"Enrichment of bHLH-B2 regulon on TF-knock-down gene expression profile by GSEA, nES",[1],1.74
same,mice that developed tumors,SNB19 glioma cells,one of four
O=c1[nH]cc(F)c(=O)[nH]1 [5-fluorouracil],"inhibition of C/EBPb activity, C/EBPb gene reporter assay","[2]; reporter activity at 48 hr, various dosages (FIG. 38A, 39A)",inhibition
